Conditions: pH 7.4

| Structure (SMILES) | PAMPA [×10⁻⁶ cm/s] |
| --- | --- |
| Nc1nnc2n(CCc3ccccc3)c(=O)c3cc(F)ccc3n12 [Compound 16, 1-Amino-7-fluoro-4-phenethyl-[1,2,4]triazolo[4,3-a]quinazolin-5(4H)-one] | 885 |
| O=c1c2cc(F)ccc2n2cnnc2n1CCc1ccccc1 [Compound 18, 7-Fluoro-4-phenethyl-[1,2,4]triazolo[4,3-a]quinazolin-5(4H)-one] | 924 |
| CCn1c(=O)c2ccccc2n2c(=S)[nH]nc12 [Compound 20, 4-Ethyl-1-thioxo-2,4-dihydro-[1,2,4]triazolo[4,3-a]quinazolin-5(1H)-one] | 427 |
| O=c1c2cc(F)ccc2n2c(=S)[nH]nc2n1CCc1ccccc1 [Compound 40, 7-Fluoro-4-phenethyl-1-thioxo-2,4-dihydro-[1,2,4]triazolo[4,3-a]quinazolin-5(1H)-one] | 77.0 |
| O=c1c2cc(Br)ccc2n2c(=S)[nH]nc2n1CCc1ccccc1 [Compound 41, 7-Bromo-4-phenethyl-1-thioxo-2,4-dihydro-[1,2,4]triazolo[4,3-a]quinazolin-5(1H)-one] | 162 |
| CC(=O)Nc1ccc2c(c1)c(=O)n(CCc1ccccc1)c1n[nH]c(=S)n21 [Compound 44, N-(5-Oxo-4-phenethyl-1-thioxo-1,2,4,5-tetrahydro-[1,2,4]-triazolo[4,3-a]quinazolin-7-yl)acetamide] | 253 |
| CN(C)c1ccc2c(c1)c(=O)n(CCc1ccccc1)c1n[nH]c(=S)n21 [Compound 45, 7-(Dimethylamino)-4-phenethyl-1-thioxo-2,4-dihydro-[1,2,4]-triazolo[4,3-a]quinazolin-5(1H)-one] | 356 |
| O=c1c2ccc(F)cc2n2c(=S)[nH]nc2n1CCc1ccccc1 [Compound 47, 8-Fluoro-4-phenethyl-1-thioxo-2,4-dihydro-[1,2,4]triazolo[4,3-a]quinazolin-5(1H)-one] | 91.0 |
| O=c1c2cccc(F)c2n2c(=S)[nH]nc2n1CCc1ccccc1 [Compound 48, 9-Fluoro-4-phenethyl-1-thioxo-2,4-dihydro-[1,2,4]triazolo[4,3-a]quinazolin-5(1H)-one] | 141 |
| O=c1c2ccncc2n2c(=S)[nH]nc2n1CCc1ccccc1 [Compound 50, 4-Phenethyl-1-thioxo-2,4-dihydropyrido[4,3-e][1,2,4]triazolo-[4,3-a]pyrimidin-5(1H)-one] | 202 |
| O=c1c2cc(F)ccc2n2c(=S)[nH]nc2n1Cc1ccccc1 [Compound 52, 4-Benzyl-7-fluoro-1-thioxo-2,4-dihydro-[1,2,4]triazolo[4,3-a]-quinazolin-5(1H)-one] | 841 |
| O=c1c2cc(Cl)ccc2n2c(=S)[nH]nc2n1CCC(F)(F)F [Compound 55, 7-Chloro-1-thioxo-4-(3,3,3-trifluoropropyl)-2,4-dihydro-[1,2,4]-triazolo[4,3-a]quinazolin-5(1H)-one] | 257 |
| CNC(=S)N1CN(CCc2ccccc2)C(=O)c2cc(F)ccc21 [Compound 62, 6-Fluoro-N-methyl-4-oxo-3-phenethyl-3,4-dihydroquinazoline-1(2H)-carbothioamide] | 161 |
| O=c1c2cc(F)ccc2n2c(=S)[nH]nc2n1CCCO [Compound 66, 7-Fluoro-4-(3-hydroxypropyl)-1-thioxo-2,4-dihydro-[1,2,4]-triazolo[4,3-a]quinazolin-5(1H)-one] | 222 |
| CC(CN(C)C)n1c(=O)c2cc(F)ccc2n2c(=S)[nH]nc12 (stereo not drawn) [Compound 71, 4-(1-(Dimethylamino)propan-2-yl)-7-fluoro-1-thioxo-2,4-dihydro-[1,2,4]triazolo[4,3-a]quinazolin-5(1H)-one] | 186 |
